Laboratory results published in patent US7045116B2, “Treatment of osteomyelitis with radiopharmaceuticals” (priority 2001, dated 2006).

Assays:
[1] = Biodistribution of radiopharmaceuticals in rats with tourniquet on left hind leg; type: in vivo, Sprague-Dawley rats; details: for Femoral Percentage Dose per Gram / Tibial Percentage Dose per Gram: i.v. tail vein; for Tibial Percentage Dose per Gram: sacrifice after two hours
Description: Rat biodistribution studies were done on Male Sprague-Dawley rats weighing 180–200 g that had been acclimated for approximately one week prior to this study. Four test complexes were used, Ho-DOTMP (Example 3), Ho-EDTMP (Example 4), Sm-DOTMP (Example 5) and Sm-EDTMP (Example 6). The rats were placed in a restraining cage that afforded accessibility to the left hind leg and tail. Prior to injection a tie wrap tourniquet was placed on the left hind femur above the knee to restrict blood flow. The amount of pressure induced by the tourniquet was standardized by using a tie wrap gun and was sufficient to stop arterial flow. Three rats per complex each received a 100.0 μL intravenous injection in a lateral tail vein. The tourniquets were allowed to remain in place for 5, 10 or 20 minutes post injection and were then removed. The rats were then watched for two hours, the usual biodistribution period used to allow excretion of all radioactive complexes not bound to tissue. The rats were then sacrificed for removal of tibias. The number of radioactive counts were then determined and compared to the average of number of counts of three 100.0 μL standards of the same material that was injected. Several additional tissues (femur, injection site, liver, kidney, spleen, muscle, and blood) were collected and counted for rats that had the 20 minutes restricted blood flow to check for expected renal excretion of radioactive complexes.
This reflects the concentration of the radioactive complex in the bone. Table 1 combines the data on the radioactivity found in the tibias of the rats from Examples 3 to 6 for each of the three times of tourniquet placement. Table 2 combines the data on the radioactivity found in the femurs of the rats from Examples 3 to 6 for the tourniquets applied for 20 minutes. The degree of “protection” of the bone by the tourniquet can be seen by comparison of the radioactivity in the bones on the left side (“protected” by the tourniquet for the time specified) as compared to the corresponding bones on the right side (fully exposed to the systemic, intravenous dose).

[2] = test system: Staphylococcus aureus; experiment: Treatment of osteomyelitis in rats with 166Ho-DOTMP (serial radiographs of the leg); type: in vivo, Sprague Dawley rats; details: rats with S. aureus osteomyelitis of left leg; intramuscular injection of 30 Gray (9 milliCurie); tourniquet above knee released after 10 minutes; in two weeks
Procedure: This example describes the successful treatment of osteomyelitis in rats using ^166Ho-DOTMP. Four 150 g male Sprague Dawley rats were anesthetized and prepared for surgery by shaving the left leg. The skin over the left tibia and fibula was opened, a hole was drilled into the bone marrow, and an 18-gauge needle was inserted into the bone marrow. Through the needle, a piece of 0 surgical suture and approximately 0.1 ml of Staphylococcus aureus culture in Trypticase soy broth were introduced into the bone marrow. The needle was removed and the bone defect sealed with cyanoacrylate glue. The skin was closed with 0 surgical suture. The rats were followed with serial radiographs of the left leg. Lytic lesions diagnostic of osteomyelitis developed in the fibula over the next three weeks. The entire bone appeared radiolucent. Two rats were followed without treatment. One week later, both of the rats died. […] Culture of the fluid grew Gram positive cocci consistent with the original Staphylococcus aureus infection. Two rats were treated with ^166Ho-DOTMP. A tourniquet was placed on the left leg above the knee. An intramuscular injection of 30 Gray (9 milliCurie) of ^166Ho-DOTMP was given after application of the tourniquet. The tourniquet was released after 10 minutes. The rats were followed with continued serial radiographs of the leg.

[3] = Left Femur (partially protected by tourniquet), tourniquet 20 minute
[4] = Left Tibia (protected by tourniquet), tourniquet 5 minute
[5] = Left Tibia (protected by tourniquet), tourniquet 10 minute
[6] = Left Tibia (protected by tourniquet), tourniquet 20 minute
[7] = Right Femur (unprotected), tourniquet 20 minute
[8] = Right Tibia (unprotected), tourniquet 5 minute
[9] = Right Tibia (unprotected), tourniquet 10 minute
[10] = Right Tibia (unprotected), tourniquet 20 minute

O=P(O)(O)CN(CCN(CP(=O)(O)O)CP(=O)(O)O)CP(=O)(O)O.[Ho+3] [Ho-EDTMP]
Dose per Gram in Left Leg as a Percentage of Dose per Gram in Right Leg ([1]; Femur, tourniquet 20 minute): 54%
Femoral Percentage Dose per Gram [1, 3]: 2.33 Percentage Dose per Gram
Tibial Percentage Dose per Gram [1, 4]: 1.35 Percentage Dose per Gram
Tibial Percentage Dose per Gram [1, 5]: 3.49 Percentage Dose per Gram
Tibial Percentage Dose per Gram [1, 6]: 1.25 Percentage Dose per Gram
Femoral Percentage Dose per Gram [1, 7]: 4.31 Percentage Dose per Gram
Tibial Percentage Dose per Gram [1, 8]: 1.60 Percentage Dose per Gram
Tibial Percentage Dose per Gram [1, 9]: 6.95 Percentage Dose per Gram
Tibial Percentage Dose per Gram [1, 10]: 5.33 Percentage Dose per Gram
Dose per Gram in Left Leg as a Percentage of Dose per Gram in Right Leg ([1]; Tibia, tourniquet 5 minute): 84%
Dose per Gram in Left Leg as a Percentage of Dose per Gram in Right Leg ([1]; Tibia, tourniquet 10 minute): 50%
Dose per Gram in Left Leg as a Percentage of Dose per Gram in Right Leg ([1]; Tibia, tourniquet 20 minute): 23%

O=P(O)(O)CN1CCN(CP(=O)(O)O)CCN(CP(=O)(O)O)CCN(CP(=O)(O)O)CC1.[Sm+3] [Sm-DOTMP]
Dose per Gram in Left Leg as a Percentage of Dose per Gram in Right Leg ([1]; Femur, tourniquet 20 minute): 22%
Femoral Percentage Dose per Gram [1, 3]: 1.40 Percentage Dose per Gram
Tibial Percentage Dose per Gram [1, 4]: 4.82 Percentage Dose per Gram
Tibial Percentage Dose per Gram [1, 5]: 3.38 Percentage Dose per Gram
Tibial Percentage Dose per Gram [1, 6]: 2.06 Percentage Dose per Gram
Femoral Percentage Dose per Gram [1, 7]: 6.46 Percentage Dose per Gram
Tibial Percentage Dose per Gram [1, 8]: 7.91 Percentage Dose per Gram
Tibial Percentage Dose per Gram [1, 9]: 6.79 Percentage Dose per Gram
Tibial Percentage Dose per Gram [1, 10]: 8.34 Percentage Dose per Gram
Dose per Gram in Left Leg as a Percentage of Dose per Gram in Right Leg ([1]; Tibia, tourniquet 5 minute): 61%
Dose per Gram in Left Leg as a Percentage of Dose per Gram in Right Leg ([1]; Tibia, tourniquet 10 minute): 50%
Dose per Gram in Left Leg as a Percentage of Dose per Gram in Right Leg ([1]; Tibia, tourniquet 20 minute): 25%

O=P(O)(O)CN1CCN(CP(=O)(O)O)CCN(CP(=O)(O)O)CCN(CP(=O)(O)O)CC1.[Ho+3] [Ho-DOTMP]
Dose per Gram in Left Leg as a Percentage of Dose per Gram in Right Leg ([1]; Femur, tourniquet 20 minute): 24%
Femoral Percentage Dose per Gram [1, 3]: 1.33 Percentage Dose per Gram
Tibial Percentage Dose per Gram [1, 4]: 3.19 Percentage Dose per Gram
Tibial Percentage Dose per Gram [1, 5]: 3.41 Percentage Dose per Gram
Tibial Percentage Dose per Gram [1, 6]: 1.35 Percentage Dose per Gram
Femoral Percentage Dose per Gram [1, 7]: 5.59 Percentage Dose per Gram
Tibial Percentage Dose per Gram [1, 8]: 7.06 Percentage Dose per Gram
Tibial Percentage Dose per Gram [1, 9]: 7.52 Percentage Dose per Gram
Tibial Percentage Dose per Gram [1, 10]: 6.39 Percentage Dose per Gram
Dose per Gram in Left Leg as a Percentage of Dose per Gram in Right Leg ([1]; Tibia, tourniquet 5 minute): 45%
Dose per Gram in Left Leg as a Percentage of Dose per Gram in Right Leg ([1]; Tibia, tourniquet 10 minute): 45%
Dose per Gram in Left Leg as a Percentage of Dose per Gram in Right Leg ([1]; Tibia, tourniquet 20 minute): 21%

O=P(O)(O)CN(CCN(CP(=O)(O)O)CP(=O)(O)O)CP(=O)(O)O.[Sm+3] [Sm-EDTMP]
Dose per Gram in Left Leg as a Percentage of Dose per Gram in Right Leg ([1]; Femur, tourniquet 20 minute): 38%
Femoral Percentage Dose per Gram [1, 3]: 2.05 Percentage Dose per Gram
Tibial Percentage Dose per Gram [1, 4]: 5.33 Percentage Dose per Gram
Tibial Percentage Dose per Gram [1, 5]: 2.56 Percentage Dose per Gram
Tibial Percentage Dose per Gram [1, 6]: 2.04 Percentage Dose per Gram
Femoral Percentage Dose per Gram [1, 7]: 5.44 Percentage Dose per Gram
Tibial Percentage Dose per Gram [1, 8]: 6.73 Percentage Dose per Gram
Tibial Percentage Dose per Gram [1, 9]: 6.17 Percentage Dose per Gram
Tibial Percentage Dose per Gram [1, 10]: 5.73 Percentage Dose per Gram
Dose per Gram in Left Leg as a Percentage of Dose per Gram in Right Leg ([1]; Tibia, tourniquet 5 minute): 79%
Dose per Gram in Left Leg as a Percentage of Dose per Gram in Right Leg ([1]; Tibia, tourniquet 10 minute): 41%
Dose per Gram in Left Leg as a Percentage of Dose per Gram in Right Leg ([1]; Tibia, tourniquet 20 minute): 36%

O=P([O-])(O)CN1CCN(CP(=O)(O)O)CCN(CP(=O)([O-])O)CCN(CP(=O)(O)O)CC1.[166Ho] [^166Ho-DOTMP]
Radiographic appearance of tibia and fibula [2]: return to normal appearance of the tibia and fibula
